Data as given in patent EP0048614B1, “1-N-acylated and 1-N-alkylated derivatives of 4-0-substituted -2-deoxystreptamine aminoglycosides” (ELI LILLY AND COMPANY, priority 1980, dated 1982).
≈ marks a conversion by molar mass, not a printed value.

Key:
[1] = test system: Bordetella bronchiseptica 16; experiment: MIC, standard agar dilution test; type: cell-based; settings: Bordetella bronchiseptica, 16, read-out: Minimum Inhibitory Concentration
From the text: (§1) The antibacterial activity of the deprotected compounds of this invention is illustrated by the following in vitro and in vivo test data obtained with representative compounds. In Table I, the minimum inhibitory concentration (MIC) for representative compounds against a wide range of gram-positive and gram-negative bacteria is presented. The MIC values were obtained by the standard agar dilution test.

[2] = test system: Citrobacter freundii CF17; experiment: MIC, standard agar dilution test; type: cell-based; settings: Citrobacter freundii, CF17, read-out: Minimum Inhibitory Concentration
From the text: as §1

[3] = test system: Enterobacter aerogenes C32; experiment: MIC, standard agar dilution test; type: cell-based; settings: Klebsiella aerogenes, C32, read-out: Minimum Inhibitory Concentration
From the text: as §1

[4] = test system: Enterobacter aerogenes EB17; experiment: MIC, standard agar dilution test; type: cell-based; settings: Klebsiella aerogenes, EB17, read-out: Minimum Inhibitory Concentration
From the text: as §1

[5] = test system: Enterobacter aerogenes X68; experiment: MIC, standard agar dilution test; type: cell-based; settings: Klebsiella aerogenes, X68, read-out: Minimum Inhibitory Concentration, Enterobacter aerogenes X68
From the text: as §1

[6] = test system: Enterobacter cloacae 265A; experiment: MIC, standard agar dilution test; type: cell-based; settings: Enterobacter cloacae, 265A, read-out: Minimum Inhibitory Concentration
From the text: as §1

Enterobacter cloacae EB5 = experiment: MIC, standard agar dilution test; type: cell-based; settings: Enterobacter cloacae, EB5, read-out: Minimum Inhibitory Concentration
From the text: as §1

Escherichia coli EC14 = experiment: MIC, standard agar dilution test; type: cell-based; settings: Escherichia coli EC14; agar dilution; read-out: Minimum Inhibitory Concentration
From the text: as §1

Escherichia coli N10 = experiment: MIC, standard agar dilution test; type: cell-based; settings: Escherichia coli, N10, Escherichia coli N10; agar dilution; read-out: Minimum Inhibitory Concentration
From the text: as §1

Escherichia coli TEM = experiment: MIC, standard agar dilution test; type: cell-based; settings: read-out: Minimum Inhibitory Concentration
From the text: as §1

Hemophilus influenzae 76 = experiment: MIC, standard agar dilution test; type: cell-based; settings: Haemophilus influenzae, 76, read-out: Minimum Inhibitory Concentration, Hemophilus influenzae 76
From the text: as §1

[7] = test system: Hemophilus influenzae C.L.; experiment: MIC, standard agar dilution test; type: cell-based; settings: Haemophilus influenzae, read-out: Minimum Inhibitory Concentration, Hemophilus influenzae C.L.
From the text: as §1

[8] = test system: Klebsiella pneumoniae KAE; experiment: MIC, standard agar dilution test; type: cell-based; settings: Klebsiella pneumoniae, read-out: Minimum Inhibitory Concentration
From the text: as §1

[9] = test system: Klebsiella pneumoniae X26; experiment: MIC, standard agar dilution test; type: cell-based; settings: Klebsiella pneumoniae, X26, read-out: Minimum Inhibitory Concentration
From the text: as §1

Proteus inconstans PR33 = experiment: MIC, standard agar dilution test; type: cell-based; settings: Providencia alcalifaciens, PR33, read-out: Minimum Inhibitory Concentration
From the text: as §1

Proteus morganii PR15 = experiment: MIC, standard agar dilution test; type: cell-based; settings: Morganella morganii, PR15, read-out: Minimum Inhibitory Concentration
From the text: as §1

Proteus rettgeri C24 = experiment: MIC, standard agar dilution test; type: cell-based; settings: Providencia rettgeri, C24, read-out: Minimum Inhibitory Concentration
From the text: as §1

Proteus rettgeri PR7 = experiment: MIC, standard agar dilution test; type: cell-based; settings: Providencia rettgeri, PR7, read-out: Minimum Inhibitory Concentration, Proteus rettgeri PR7
From the text: as §1

[10] = test system: Pseudomonas aeruginosa Ps18; experiment: MIC, standard agar dilution test; type: cell-based; settings: Pseudomonas aeruginosa, PS18, read-out: Minimum Inhibitory Concentration
From the text: as §1

[11] = test system: Pseudomonas aeruginosa X239; experiment: MIC, standard agar dilution test; type: cell-based; settings: Pseudomonas aeruginosa, X239, read-out: Minimum Inhibitory Concentration
From the text: as §1

[12] = test system: Pseudomonas aeruginosa X528; experiment: MIC, standard agar dilution test; type: cell-based; settings: Pseudomonas aeruginosa, X528, read-out: Minimum Inhibitory Concentration
From the text: as §1

[13] = test system: Salmonella heidelberg X514; experiment: MIC, standard agar dilution test; type: cell-based; settings: Salmonella enterica, X514, read-out: Minimum Inhibitory Concentration
From the text: as §1

[14] = test system: Salmonella typhimurium 1335; experiment: MIC, standard agar dilution test; type: cell-based; settings: Salmonella enterica, TYPHIMURIUM, read-out: Minimum Inhibitory Concentration
From the text: as §1

Serratia marcescens SE3 = experiment: MIC, standard agar dilution test; type: cell-based; settings: Serratia marcescens, SE3, read-out: Minimum Inhibitory Concentration
From the text: as §1

Serratia marcescens X99 = experiment: MIC, standard agar dilution test; type: cell-based; settings: Serratia marcescens, X99, read-out: Minimum Inhibitory Concentration, Serratia marcescens X99
From the text: as §1

Shigella sonnei N9 = experiment: MIC, standard agar dilution test; type: cell-based; settings: read-out: Minimum Inhibitory Concentration
From the text: as §1

[15] = test system: Staphylococcus aureus S13E; experiment: MIC, standard agar dilution test; type: cell-based; settings: read-out: Minimum Inhibitory Concentration
From the text: as §1

[16] = test system: Staphylococcus aureus V41; experiment: MIC, standard agar dilution test; type: cell-based; settings: Staphylococcus aureus, V41, read-out: Minimum Inhibitory Concentration
From the text: as §1

[17] = test system: Staphylococcus aureus X1.1; experiment: MIC, standard agar dilution test; type: cell-based; settings: Staphylococcus aureus, X1.1, read-out: Minimum Inhibitory Concentration
From the text: as §1

[18] = test system: Staphylococcus aureus X400; experiment: MIC, standard agar dilution test; type: cell-based; settings: Staphylococcus aureus, X400, read-out: Minimum Inhibitory Concentration, Staphylococcus aureus X400
From the text: as §1

[19] = test system: Staphylococcus epidermidis EPI1; experiment: MIC, standard agar dilution test; type: cell-based; settings: Staphylococcus epidermidis, EPI1; read-out: Minimum Inhibitory Concentration
From the text: as §1

[20] = test system: Staphylococcus epidermidis EPI2; experiment: MIC, standard agar dilution test; type: cell-based; settings: Staphylococcus epidermidis, EPI2, read-out: Minimum Inhibitory Concentration
From the text: as §1

[21] = test system: Streptococcus group D 9960; experiment: MIC, standard agar dilution test; type: cell-based; settings: D9960, read-out: Minimum Inhibitory Concentration
From the text: as §1

[22] = test system: Streptococcus group D X66; experiment: MIC, standard agar dilution test; type: cell-based; settings: DX66, read-out: Minimum Inhibitory Concentration
From the text: as §1

[23] = test system: Streptococcus pneumoniae Park I; experiment: MIC, standard agar dilution test; type: cell-based; settings: Streptococcus pneumoniae; read-out: Minimum Inhibitory Concentration
From the text: as §1

[24] = test system: Streptococcus pyogenes C203; experiment: MIC, standard agar dilution test; type: cell-based; settings: Streptococcus pyogenes, C203, read-out: Minimum Inhibitory Concentration
From the text: as §1

[25] = test system: Staphylococcus aureus 3055; experiment: Subcutaneous therapy of experimental bacterial infection in mice (ED50); type: in vivo; settings: Staphylococcus aureus, 3055, sc, read-out: Effective Dose (ED50), mg/kg × 2 subcutaneous doses at 1 and 5 hours post infection; mice challenged with 68.1 LD50's
Experimental: Table II illustrates the effective dose (ED50, the effective dose to protect 50 percent of the test animals) for representative compounds of this invention against an experimental bacterial infection in mice.
The ED50 values were determined as described by W. E. Wick et al., Journal of Bacteriology, 81 [No. 2], 233-235 (1961).

Escherichia coli X563 = experiment: Standard disc-plate method, zone of inhibition against apramycin-resistant strain; type: cell-based; settings: apramycin-resistant E. coli X563, one value for each of two test runs per compound
From the text: Table III, shown below, illustrates the in vitro activity of 1-N-(S-y-amino-a-hydroxybutyryl)apramycin, 1-N-(RS-y-amino-a-hydroxybutyryl)apramycin, and 1-N-(S-y-amino-a-hydroxybutyryl)nebramine against an apramycin resistant strain of E. coli. The results below were obtained using the standard disc-plate method. The numerical values are the diameters in millimeters of the zones of inhibition observed against this bacterium. Compounds substituted with the y-amino-a-hydroxybutyryl and analogous side chains are useful in treating infections caused by apramycin resistant bacteria such as the one above.
The test organism (E. coli X563) used in the experiments summarized in Table III is resistant to apramycin due to a 3-N-acetyltransferase which enzymatically inactivates apramycin.

Q: Which MIC [1] does the source give for `CNC1C(OC2OC(CO)C(N)C(O)C2O)OC2CC(N)C(OC3C(N)CC(NC(=O)C(O)CCN)C(O)C3O)OC2C1O` (stereo not drawn) [Test Compound 1, 1-N-(S-γ-amino-α-hydroxybutyryl)apramycin] here?
A: 64 µg/mL (≈ 99.9 µM)

Q: What about the MIC [2] of the same molecule?
A: 16 µg/mL (≈ 25 µM)

Q: What about the MIC [3] of the same molecule?
A: 8 µg/mL (≈ 12.5 µM)

Q: What about the MIC [4] of the same molecule?
A: 16 µg/mL (≈ 25 µM)

Q: And the MIC [5]?
A: 8 µg/mL (≈ 12.5 µM)

Q: What about the MIC [6] of the same molecule?
A: 32 µg/mL (≈ 49.9 µM)

Q: And the MIC (Enterobacter cloacae EB5)?
A: 16 µg/mL (≈ 25 µM)

Q: What about the MIC (Escherichia coli EC14) of the same molecule?
A: 16 µg/mL (≈ 25 µM)

Q: What about the MIC (Escherichia coli N10) of the same molecule?
A: 8 µg/mL (≈ 12.5 µM)

Q: What about the MIC (Escherichia coli TEM) of the same molecule?
A: 4 µg/mL (≈ 6.24 µM)

Q: And the MIC (Hemophilus influenzae 76)?
A: 16 µg/mL (≈ 25 µM)

Q: What about the MIC [7] of the same molecule?
A: 16 µg/mL (≈ 25 µM)

Q: And the MIC [8]?
A: 16 µg/mL (≈ 25 µM)

Q: And the MIC [9]?
A: 8 µg/mL (≈ 12.5 µM)

Q: And the MIC (Proteus inconstans PR33)?
A: 8 µg/mL (≈ 12.5 µM)

Q: What about the MIC (Proteus morganii PR15) of the same molecule?
A: 128 µg/mL (≈ 200 µM)

Q: What about the MIC (Proteus rettgeri C24) of the same molecule?
A: 8 µg/mL (≈ 12.5 µM)

Q: What about the MIC (Proteus rettgeri PR7) of the same molecule?
A: 8 µg/mL (≈ 12.5 µM)

Q: And the MIC [10]?
A: 128 µg/mL (≈ 200 µM)

Q: And the MIC [11]?
A: 64 µg/mL (≈ 99.9 µM)

Q: What about the MIC [12] of the same molecule?
A: 64 µg/mL (≈ 99.9 µM)

Q: What about the MIC [13] of the same molecule?
A: 16 µg/mL (≈ 25 µM)

Q: And the MIC [14]?
A: 16 µg/mL (≈ 25 µM)

Q: What about the MIC (Serratia marcescens SE3) of the same molecule?
A: 16 µg/mL (≈ 25 µM)

Q: What about the MIC (Serratia marcescens X99) of the same molecule?
A: 8 µg/mL (≈ 12.5 µM)

Q: And the MIC (Shigella sonnei N9)?
A: 16 µg/mL (≈ 25 µM)

Q: And the MIC [15]?
A: 16 µg/mL (≈ 25 µM)

Q: And the MIC [16]?
A: 16 µg/mL (≈ 25 µM)

Q: And the MIC [17]?
A: 8 µg/mL (≈ 12.5 µM)

Q: And the MIC [18]?
A: 32 µg/mL (≈ 49.9 µM)

Q: And the MIC [19]?
A: 8 µg/mL (≈ 12.5 µM)

Q: And the MIC [20]?
A: 4 µg/mL (≈ 6.24 µM)

Q: What about the MIC [21] of the same molecule?
A: > 128 µg/mL

Q: What about the MIC [22] of the same molecule?
A: > 128 µg/mL

Q: What about the MIC [23] of the same molecule?
A: 64 µg/mL (≈ 99.9 µM)

Q: And the MIC [24]?
A: 64 µg/mL (≈ 99.9 µM)

Q: And the ED50 [25]?
A: < 4.35 mg/kg

Q: And the “Zone of Inhibition (diameter in mm)” value (Escherichia coli X563; 15 mcg/disc, listed as 1)?
A: 14.7 mm

Q: What about the zone of inhibition at 15 µg/disc (Escherichia coli X563; Escherichia coli, X563, read-out: Zone of Inhibition (diameter in mm), 15 mcg/disc) of the same molecule?
A: 12.4 mm
